Like-named read-outs stand apart in the source and are kept apart here.
Experiments:
[1] = tested on: HCT116; test: MTT drug sensitivity, colon cancer cell line HCT116; format: cell-based, human
Description: (§1) Cytotoxicity of the platinum-based compounds was measured by MTT (thiazolyl blue tetrazolium bromide) assay. Cells were seeded in 100 μl of the culture medium without any antibiotics in 96-well plates at a predetermined cell density. For HEK 293 cells, poly-D-lysine coated plates were used. […] For the OCT inhibitor studies, the inhibitors (i.e., disopyramide or cimetidine) were added to the medium at a specified concentration immediately before the addition of the platinum-based compounds. After incubation for a specified time period, the drug-containing medium was replaced with fresh, drug-free medium and the incubation was continued for a total of 72 hours (start from the addition of platinum-based compounds). Then, the MTT assay was performed similarly as described in Alley et al., Cancer Res., 48:589-601 (1988). […] The maximal cell growth was the cell growth in the medium without any platinum-based compounds; C is the concentration of the platinum-based compound, and γ is the slope factor.
(§2) The cell seeding density was 6,000-, 8,000-, 6,000-, 15,000-12,000- and 4,000 cells/well for HCT116, HT29, RKO, SW620, LS180, and DLD cells, respectively. When cimetidine (1.5 mM) was used, it was added to the wells immediately before the addition of the platinum-based drugs. The resistance factor (RF) was defined as the ratio of the mean IC50 value in the presence to that in the absence of cimetidine. Data are expressed as mean±SD from six measurements, and each measurement was performed in quadruplicate.

[2] = tested on: SW620; test: MTT drug sensitivity, colon cancer cell line SW620; format: cell-based, human
Description: as §1, §2

[3] = tested on: LS180; test: MTT drug sensitivity, colon cancer cell line LS180; format: cell-based, human
Description: as §1, §2

[4] = tested on: DLD; test: MTT drug sensitivity, colon cancer cell line DLD; format: cell-based, human
Description: as §1, §2

[5] = tested on: six colon cancer cell lines; test: MTT drug sensitivity, summary over the six colon cancer cell lines; format: cell-based, human
Description: as §1
The resistance factor (RF) due to the presence of cimetidine was defined as the ratio of the IC50 value in the presence of cimetidine to that in the absence of cimetidine.
as §2

[6] = tested on: MDCK-hOCT1 cells; test: Platinum-DNA adduct formation in MDCK-hOCT1 cells; format: cell-based, canine
Description: After incubation at 37° C. and 5% CO2 for 2 hours, the cells were washed with ice-cold PBS three times and harvested. The genomic DNA was isolated from the cells and the platinum content associated with DNA was determined by ICP-MS and normalized for DNA content. Data are expressed as mean±SD from a typical experiment performed in triplicate. Two independent experiments were conducted and similar results were obtained.
After incubation, the cells were washed with ice-cold PBS three times and harvested. Genomic DNA was isolated from the harvested cells and the DNA-associated platinum content was determined by ICP-MS and normalized for the DNA content. Data are expressed as mean±SD of three measurements.
The platinum content associated with genomic DNA was determined as described in Samimi et al., Clin. Cancer Res., 10:4661-4669 (2004) with some modifications. Briefly, the cells were grown in 100 mm×20 mm dishes in the culture medium without any antibiotics to over 90% confluence. For HEK 293 cells, poly-D-lysine coated dishes were used. Then, the cells were incubated in the culture medium containing the specified concentrations of the platinum-based compounds at 37° C. in 5% CO2 for 2 hours (or 25 min as specified). In some experiments, phosphate buffer (PB: 1.06 mM KH2PO4, 2.97 mM Na2HPO4, pH 7.4) containing 155 mM NaCl (PB—Cl buffer) or 103 mM Na2SO4 (PB—SO4 buffer) was used instead of the culture medium as specified. For the OCT inhibitor study, the incubation medium (buffer) also contained disopyramide or cimetidine). If PB—Cl or PB—SO4 buffer was used, the cells were washed with the same buffer once before drug incubation. After incubation, the cells were washed with ice-cold PBS, scraped, and pelleted. Genomic DNA was isolated from the cell pellets using the Wizard® Genomic DNA Purification Kit (Promega, Madison, Wis.) following the manufacturer's instructions. Briefly, the cells were lysed with Nuclei Lysis Solution. After RNA digestion and protein precipitation, the lysates were centrifuged and the resulting supernatant was aliquoted. The genomic DNA prepared from two different aliquots of the supernatant was used for platinum and DNA content determination, respectively. For the determination of platinum, the DNA samples were treated with 70% nitric acid at 65° C. and diluted in the same way as described above. The platinum content was analyzed using ICP-MS and the DNA content was measured by absorption spectroscopy.

[7] = 2-hr exposure, disopyramide 150 μM

O=C1[O][Pt]2([NH][C@@H]3CCCC[C@H]3[NH]2)[O]C1=O [oxaliplatin]
IC50 ([1]; HCT116, absence of cimetidine, read-out: IC50 Control): 2.37 ± 1.44 µM
IC50 ([1]; HCT116, cimetidine 1.5 mM, read-out: IC50 Cimetidine-treated): 18.8 ± 6.19 µM
IC50 ([2]; SW620, absence of cimetidine, read-out: IC50 Control): 2.81 ± 1 µM
IC50 ([2]; SW620, cimetidine 1.5 mM, read-out: IC50 Cimetidine-treated): 14.2 ± 2.81 µM
IC50 ([3]; LS180, absence of cimetidine, read-out: IC50 Control): 1.3 ± 0.41 µM
IC50 ([3]; LS180, cimetidine 1.5 mM, read-out: IC50 Cimetidine-treated): 8.39 ± 2.77 µM
IC50 ([4]; absence of cimetidine, read-out: IC50 Control): 10.6 ± 5.99 µM
IC50 ([4]; cimetidine 1.5 mM, read-out: IC50 Cimetidine-treated): 71.3 ± 12.9 µM
IC50 ([5]; absence of cimetidine, read-out: mean±SE of IC50 in the six cell lines, control): 3.88 ± 1.42 µM
IC50 ([5]; cimetidine 1.5 mM, read-out: mean±SE of IC50 in the six cell lines, in the presence of cimetidine): 29.1 ± 10.7 µM
rb in MDCK-hOCT1 ([6]; 20 μM, PB—Cl, 25 min): 3.08±0.41×10^−6
rb in MDCK-hOCT1 ([6]; 20 μM, PB—SO4, 25 min): 1.31±0.29×10^−6
Pt-DNA adduct level in MDCK-hOCT1 ([6]; 20 μM, chloride free buffer PB—SO4, 25 min): 0.00398±0.00089 pmol/μg DNA
DNA-associated platinum level in MDCK-hOCT1 ([6]; 20 μM, chloride-containing buffer PB—Cl, 25 min): 0.00933±0.00124 pmol/μg DNA
platinum-DNA adduct level in MDCK-hOCT1, disopyramide-treated [6, 7]: 0.0217±0.0019 pmol/μg DNA
rb in MDCK-hOCT1, disopyramide-treated [6, 7]: 7.16±0.63×10^−6
platinum-DNA adduct level in MDCK-hOCT1 ([6]; 2-hr exposure, oxaliplatin 10 μM, culture medium): 0.0457±0.0011 pmol/μg DNA
